In the CheMixHub viscosity set:

Assay: xn = mol fraction of the nth substance listed

COCCOCCO + CCCO
viscosity [mPa·s], 101 kPa
Details	298.15 K	308.15 K	318.15 K
x1 = 0.0105	1.951	1.522	1.248
x1 = 0.0278	1.961	1.547	1.25
x1 = 0.0448	1.966	1.559	1.259
x1 = 0.0797	1.979	1.566	1.275
x1 = 0.0978	1.998	1.566	1.28
x1 = 0.1316	2.02	1.581	1.296
x1 = 0.1852	2.069	1.613	1.326
x1 = 0.2267	2.104	1.648	1.369
x1 = 0.2853	2.158	1.693	1.399
x1 = 0.3029	2.172	1.713	1.415
x1 = 0.3226	2.2	1.724	1.43
x1 = 0.3872	2.284	1.79	1.486
x1 = 0.439	2.354	1.84	1.532
x1 = 0.4811	2.416	1.888	1.573
x1 = 0.5266	2.42	1.94	1.618
x1 = 0.5519	2.528	1.969	1.643
x1 = 0.6051	2.624	2.037	1.694
x1 = 0.6805	2.748	2.138	1.778
x1 = 0.7239	2.835	2.193	1.832
x1 = 0.7925	2.967	2.29	1.917
x1 = 0.8237	3.034	2.338	1.947
x1 = 0.8896	3.163	2.439	2.027
x1 = 0.9096	3.207	2.464	2.051
x1 = 0.9417	3.265	2.509	2.086
x2 = 0.0151	3.393	2.614	2.14

Cc1ccccc1C + CCCO
viscosity [mPa·s], 100 kPa
Details	298.15 K	308.15 K
x2 = 0.063	0.7471	0.6664
x2 = 0.123	0.7703	0.6751
x2 = 0.2215	0.784	0.6782
x2 = 0.3496	0.8508	0.7537
x2 = 0.4648	0.9239	0.806
x2 = 0.5689	1.017	0.8647
x2 = 0.6634	1.124	0.9367
x2 = 0.7497	1.264	1.029
x2 = 0.8287	1.454	1.155
x2 = 0.9014	1.626	1.275
x2 = 0.9684	1.836	1.49

NC(N)=O + CCCO
viscosity [mPa·s], 101 kPa
Details	298.15 K	303.15 K	308.15 K	313.15 K	318.15 K
x1 = 0.025	2.16	1.896	1.691	1.502	1.339
x1 = 0.0385	2.24	2.003	1.768	1.568	1.401
